In PubChem BioAssay AID1963446 (Molecular Pharmacology Branch, DTP, NCI, 2024):

System: 993429-296-R-J1-PDC complex spheroid growth, percent test/control
Assay: Anticancer human tumor 993429-296-R-J1-PDC patient-derived uterine sarcoma cell line growth inhibition [Asc]
Details: for IC50: curve of first compound; for viability, T/C: stronger effect = lower value
Method in brief: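 Stromal components (HUVEC and hMSC) are co-assembled with the cancer cells into multicellular spheroids. Drugs are then added singly or paired, at concentrations falling by half-log increments from a clinically achievable maximum, capped at 10 microM without known Cmax.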

[1] = second compound 0.01 µM, first compound 0.00316 µM
[2] = second compound 0.01 µM, first compound 0.01 µM
[3] = second compound 0.01 µM, first compound 0.0316 µM
[4] = second compound 0.01 µM, first compound 0.1 µM
[5] = second compound 0.01 µM, first compound 0.316 µM
[6] = second compound 0.01 µM, first compound 1 µM
[7] = second compound 0.0316 µM, first compound 0.00316 µM
[8] = second compound 0.0316 µM, first compound 0.01 µM
[9] = second compound 0.0316 µM, first compound 0.0316 µM
[10] = second compound 0.0316 µM, first compound 0.1 µM
[11] = second compound 0.0316 µM, first compound 0.316 µM
[12] = second compound 0.0316 µM, first compound 1 µM
[13] = second compound 0.1 µM, first compound 0.00316 µM
[14] = second compound 0.1 µM, first compound 0.01 µM
[15] = second compound 0.1 µM, first compound 0.0316 µM
[16] = second compound 0.1 µM, first compound 0.1 µM
[17] = second compound 0.1 µM, first compound 0.316 µM
[18] = second compound 0.1 µM, first compound 1 µM
[19] = second compound 0.316 µM, first compound 0.00316 µM
[20] = second compound 0.316 µM, first compound 0.01 µM
[21] = second compound 0.316 µM, first compound 0.0316 µM
[22] = second compound 0.316 µM, first compound 0.1 µM
[23] = second compound 0.316 µM, first compound 0.316 µM
[24] = second compound 0.316 µM, first compound 1 µM
[25] = second compound 1 µM, first compound 0.00316 µM
[26] = second compound 1 µM, first compound 0.01 µM
[27] = second compound 1 µM, first compound 0.0316 µM
[28] = second compound 1 µM, first compound 0.1 µM
[29] = second compound 1 µM, first compound 0.316 µM
[30] = second compound 1 µM, first compound 1 µM
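Also: spheroids exposed to compounds for seven days.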

SMILES: CCN1CCN(Cc2ccc(Nc3ncc(F)c(-c4cc(F)c5nc(C)n(C(C)C)c5c4)n3)nc2)CC1 + CNC(C)C(=O)NC1CN(S(=O)(=O)c2cccc(S(=O)(=O)N3CCC4CCC(C(=O)NC(c5ccccc5)c5ccccc5)N4C(=O)C(NC(=O)C(C)NC)C3)c2)CCC2CCC(C(=O)NC(c3ccccc3)c3ccccc3)N2C1=O
- IC50 (second compound 0.01 µM): > 1000 nM
- IC50 (second compound 0.0316 µM): > 1000 nM
- IC50 (second compound 0.1 µM): > 1000 nM
- IC50 (second compound 0.316 µM): < 3.16 nM
- IC50 (second compound 1 µM): > 1000 nM
- viability, T/C [1]: 58.4%
- viability, T/C [2]: 66.1%
- viability, T/C [3]: 64%
- viability, T/C [4]: 68.4%
- viability, T/C [5]: 67.7%
- viability, T/C [6]: 76%
- viability, T/C [7]: 54.1%
- viability, T/C [8]: 63.4%
- viability, T/C [9]: 59.5%
- viability, T/C [10]: 53.6%
- viability, T/C [11]: 71.4%
- viability, T/C [12]: 77.4%
- viability, T/C [13]: 52%
- viability, T/C [14]: 54%
- viability, T/C [15]: 56.2%
- viability, T/C [16]: 54%
- viability, T/C [17]: 59.8%
- viability, T/C [18]: 62.4%
- viability, T/C [19]: 45.3%
- viability, T/C [20]: 46.2%
- viability, T/C [21]: 41%
- viability, T/C [22]: 53.2%
- viability, T/C [23]: 69%
- viability, T/C [24]: 70%
- viability, T/C [25]: 53.5%
- viability, T/C [26]: 58.7%
- viability, T/C [27]: 38.9%
- viability, T/C [28]: 51.4%
- viability, T/C [29]: 49.6%
- viability, T/C [30]: 60.3%

SMILES: NC(=O)C(=Cn1cnc(-c2cc(C(F)(F)F)cc(C(F)(F)F)c2)n1)c1cncnc1 + CNC(C)C(=O)NC1CN(S(=O)(=O)c2cccc(S(=O)(=O)N3CCC4CCC(C(=O)NC(c5ccccc5)c5ccccc5)N4C(=O)C(NC(=O)C(C)NC)C3)c2)CCC2CCC(C(=O)NC(c3ccccc3)c3ccccc3)N2C1=O
- IC50 (second compound 0.01 µM): 12.8 nM
- IC50 (second compound 0.0316 µM): 11.1 nM
- IC50 (second compound 0.1 µM): 8.96 nM
- IC50 (second compound 0.316 µM): 5.99 nM
- IC50 (second compound 1 µM): 8.1 nM
- viability, T/C (second compound 0.01 µM, first compound 0.000949 µM): 62.7%
- viability, T/C (second compound 0.01 µM, first compound 0.003 µM): 65.6%
- viability, T/C (second compound 0.01 µM, first compound 0.00949 µM): 55.4%
- viability, T/C (second compound 0.01 µM, first compound 0.03 µM): 33.1%
- viability, T/C (second compound 0.01 µM, first compound 0.0949 µM): 14.9%
- viability, T/C (second compound 0.01 µM, first compound 0.3 µM): 8.47%
- viability, T/C (second compound 0.0316 µM, first compound 0.000949 µM): 63.6%
- viability, T/C (second compound 0.0316 µM, first compound 0.003 µM): 63.1%
- viability, T/C (second compound 0.0316 µM, first compound 0.00949 µM): 52.1%
- viability, T/C (second compound 0.0316 µM, first compound 0.03 µM): 33%
- viability, T/C (second compound 0.0316 µM, first compound 0.0949 µM): 14.9%
- viability, T/C (second compound 0.0316 µM, first compound 0.3 µM): 8%
- viability, T/C (second compound 0.1 µM, first compound 0.000949 µM): 58.3%
- viability, T/C (second compound 0.1 µM, first compound 0.003 µM): 61.1%
- viability, T/C (second compound 0.1 µM, first compound 0.00949 µM): 48.1%
- viability, T/C (second compound 0.1 µM, first compound 0.03 µM): 33.3%
- viability, T/C (second compound 0.1 µM, first compound 0.0949 µM): 16%
- viability, T/C (second compound 0.1 µM, first compound 0.3 µM): 4.45%
- viability, T/C (second compound 0.316 µM, first compound 0.000949 µM): 57.6%
- viability, T/C (second compound 0.316 µM, first compound 0.003 µM): 60%
- viability, T/C (second compound 0.316 µM, first compound 0.00949 µM): 43.7%
- viability, T/C (second compound 0.316 µM, first compound 0.03 µM): 29%
- viability, T/C (second compound 0.316 µM, first compound 0.0949 µM): 15.8%
- viability, T/C (second compound 0.316 µM, first compound 0.3 µM): 8.88%
- viability, T/C (second compound 1 µM, first compound 0.000949 µM): 52%
- viability, T/C (second compound 1 µM, first compound 0.003 µM): 62.6%
- viability, T/C (second compound 1 µM, first compound 0.00949 µM): 47.8%
- viability, T/C (second compound 1 µM, first compound 0.03 µM): 28.5%
- viability, T/C (second compound 1 µM, first compound 0.0949 µM): 14.1%
- viability, T/C (second compound 1 µM, first compound 0.3 µM): 5.77%

SMILES: O=C(c1ccc(F)c(F)c1Nc1ccc(I)cc1F)N1CC(O)([C@@H]2CCCCN2)C1 + CNC(C)C(=O)NC1CN(S(=O)(=O)c2cccc(S(=O)(=O)N3CCC4CCC(C(=O)NC(c5ccccc5)c5ccccc5)N4C(=O)C(NC(=O)C(C)NC)C3)c2)CCC2CCC(C(=O)NC(c3ccccc3)c3ccccc3)N2C1=O
- IC50 (second compound 0.01 µM): 56.5 nM
- IC50 (second compound 0.0316 µM): 30.9 nM
- IC50 (second compound 0.1 µM): 27.2 nM
- IC50 (second compound 0.316 µM): < 3.16 nM
- IC50 (second compound 1 µM): 11.4 nM
- viability, T/C [1]: 65.5%
- viability, T/C [2]: 64.5%
- viability, T/C [3]: 50.4%
- viability, T/C [4]: 48.9%
- viability, T/C [5]: 25.3%
- viability, T/C [6]: 1.67%
- viability, T/C [7]: 61.7%
- viability, T/C [8]: 51.2%
- viability, T/C [9]: 55.2%
- viability, T/C [10]: 33.4%
- viability, T/C [11]: 19.1%
- viability, T/C [12]: 1.07%
- viability, T/C [13]: 56.4%
- viability, T/C [14]: 57.5%
- viability, T/C [15]: 50.7%
- viability, T/C [16]: 29.6%
- viability, T/C [17]: 14.9%
- viability, T/C [18]: 1.5%
- viability, T/C [19]: 48.3%
- viability, T/C [20]: 45.4%
- viability, T/C [21]: 50.7%
- viability, T/C [22]: 34.1%
- viability, T/C [23]: 11%
- viability, T/C [24]: 0.99%
- viability, T/C [25]: 54.8%
- viability, T/C [26]: 48.4%
- viability, T/C [27]: 43.6%
- viability, T/C [28]: 38.5%
- viability, T/C [29]: 12.7%
- viability, T/C [30]: 0.99%
